Test results published in patent publication US10045529B2, “Quat cleaner with glycerin ether ethoxylates” (Ecolab USA Inc., priority 2012, dated 2018).

Tests used:
[1] = Cloud point of solfactants in various solutions; assay type: physicochemical; details: 1% in 10% NaCl
Excerpt: Various 2-Ethyl Hexanol Glycerin Ether Ethoxylate solfactants were produced using ethoxylation by a KOH Catalyst.
Further the cloud point data for the solfactants in various solutions is shown. The cloud point temperatures show the temperature above which a surfactant-rich phase separates from an aqueous solution. There is a clear relationship between the cloud point and the average EO content of the glycerin ether ethoxylate; as the ethylene oxide content of the solfactant increases, the cloud point and water solubility increase. As the carbon number on the molecule increases, a greater number of moles of ethylene oxide are required to be added to the molecule to retain the same cloud point.

[2] = Glewwe foam meter foam height test; assay type: physicochemical; details: 50 ppm
Excerpt: Foam testing was completed for the ethoxylated glycerine ether solfactants in comparison to commercially-available ethoxylated alcohols using a Glewwe foam meter. A Glewwe foam meter provides a dynamic foam test rather than a static test, which is considered more appropriate for simulation of industrial conditions. The equipment and general procedure for the Glewwe form test is described in U.S. Pat. Nos. 3,899,387 and 5,447,648, which are herein incorporated by reference in its entirety. The foam meter itself consists of a thermostated reservoir and a pump to recirculate the aqueous medium with foaming tendencies. The foam developed by the action of the aqueous stream impinging on the surface in the reservoir causes foam formation.
The foam heights of the tested compositions were determined using the following method. First 3000 mL of city water (e.g. 17 gpg) was filled into the Glewwe cylinder. The pump was turned on, pressure adjusted to 6 psi, and heated water to 140° F. The commercially available surfactant (or the solfactant according to the invention) was added at 50 ppm in the cylinder and the timer was started. Foam height was recorded at 1 minute and 5 minutes. After 5 minutes the pump was stopped and foam stability characteristics were observed. The cylinder was then drained, rinsed, and the methods repeated.

[3] = Gel formation with water; assay type: physicochemical
Excerpt: The low foam profiles and low viscosity of the glycerin ether ethoxylate solfactants as shown in Examples 5 and 6 were further compared to gel curves of conventional ethoxylated alcohols (e.g. Tomadol surfactants). […]

[4] = Tergotometer detergency test on EMPA soiled swatches
Protocol: Laundry detergent compositions using 500 ppm sodium hydroxide (e.g. caustic) and the indicated conventional Surfonic® surfactant or the glycerin ether ethoxylate solfactant according to the invention were evaluated. A tergotometer test procedure was employed to measure detergency of test compositions according to the invention. A tergotometer along with 500 mL pots and water bath were employed. First, unwashed swatches from the lot numbers to be used in the test are read on the Konica Minolta Spectrophotometer model CM-3600d to establish the average initial (before washing) L value. A sampling of each swatch type is used. The desired wash temperature is programmed into the Tergotometer and its water bath is allowed to heat up to that temperature. 500 mL of the desired water type is added to each Tergotometer pot and allowed to equilibrate to the desired temperature.
The following standard, commercially available (EMPA) soiled swatches were used for baseline testing in the Examples, as shown in Table 9.
The test detergent compositions are weighed out and added to the Tergotometer pots. Various detergent compositions as shown in Tables 10-11 were employed under varying water conditions, including 5 grain water (Table 10) and 17 grain water (Table 11).
The detergent systems were agitated for 10 minutes to mix and dissolve in the water sources. The agitation/mixing speed RPM was adjusted to 200. The temperature of the detergent compositions dissolved in water was 60° C., unless indicated otherwise in the Figures/Examples set forth below. The swatches are added quickly to their respective pots in a left to right sequence in order to minimize differences in exposure time to the detergent systems. A wash run is completed for at least 10 minutes. At the end of the run, the swatches are removed from the pots quickly in a left to right sequence using a forceps and are transferred into 500 mL-1 liter of cool water to rinse. After rinsing with cold tap water, excess water from the swatches was removed by squeezing the swatches. The process was repeated with rinsing and squeezing excess water at least 2 more times. The swatches were air dried on a visa napkin or paper towel on the lab bench.
The swatches were then read on the HunterLab Color Quest and calculate % soil removal (i.e. whiteness) from the difference between the initial (before washing) L value and the final L value (after washing). Percent Soil Removal=(L after−L initial)/(96−L initial)*100 is represented as L*.

[5] = Differential Scanning calorimetry (DSC) freeze or melt point; assay type: physicochemical
Protocol: Differential Scanning calorimetry (DSC) was run on the various 2-Ethyl Hexanol Glycerin Ether Ethoxylate solfactants set forth in Table 1. The DSC evaluated additional properties of the exemplary set of novel solfactants, namely the freezing point of the molecules. The DSC utilized can be measured down to minus 80° C. for determining a freeze or melt points of a liquid. […] This is distinct form conventional alcohol ethoxylates (having equivalent degrees of ethoxylation) which have very high melt points. For example, many conventional alcohol ethoxylate surfactants have melt points at room temperature or higher, resulting in the compositions being solids at room temperature. In addition, as one skilled in the art ascertains, the more ethyl oxide you add to a standard alcohol ethoxylate, the higher the melt point. This is distinct from the solfactants according to the invention, including the 2-Ethyl Hexanol Glycerin Ether Ethoxylate solfactants set forth in Table 1. For example, Tomadol 24-9 is a solid at room temperature, whereas the equivalent 2EHGE 9 mole is a liquid at room temperature.

2-Ethyl Hexanol Glycerin Ether Ethoxylate (9 moles) [2EHGE (9 EO)]
Cloud Point Data 1% in 10% NaCl [1]: 95 °C | OBSERVATIONS (foam stability after pump stopped) ([2]; after 5 minutes pump stopped): Unstable - Breaks | Foam Height (in) @ 1 MIN ([2]; city water 17 gpg, 140° F., 6 psi, 1 minute): 4.5 in | Foam Height (in) @ 5 MIN ([2]; city water 17 gpg, 140° F., 6 psi, 5 minutes): 4.5 in | Gel Formation ([3]; 20%/80%): None | Gel Formation ([3]; 30%/70%): None | Gel Formation ([3]; 40%/60%): None | Gel Formation ([3]; 50%/50%): None | Gel Formation ([3]; 60%/40%): None | Gel Formation ([3]; 70%/30%): None | Gel Formation ([3]; 80%/20%): None | Gel Formation ([3]; 90%/10%): None | Gel Formation ([3]; Glycerin Ether Ethoxylate %/Water % 10%/90%): None | % removal EMPA 116 ([4]; 5 gpg water, 50 ppm, 500 ppm sodium hydroxide, 60° C., EMPA 116 (Blood, milk and ink, Cotton)): 33% | % removal EMPA 101 ([4]; 5 gpg, 50 ppm, EMPA 101 (olive oil/carbon black, Cotton)): 32% | % removal EMPA 104 ([4]; 5 gpg, 50 ppm, EMPA 104 (olive oil/carbon black, Cotton blend)): 38% | % removal EMPA 106 ([4]; 5 gpg, 50 ppm, EMPA 106 (mineral oil, Cotton)): 55.18% | % removal EMPA 111 ([4]; 5 gpg, 50 ppm, EMPA 111 (Pig blood, Cotton)): 48% | % removal EMPA 114 ([4]; 5 gpg, 50 ppm, EMPA 114 (Red wine, Cotton)): 2% | % removal EMPA 101 ([4]; 5 gpg, 100 ppm, EMPA 101): 29% | % removal EMPA 104 ([4]; 5 gpg, 100 ppm, EMPA 104): 24% | % removal EMPA 106 ([4]; 5 gpg, 100 ppm, EMPA 106): 50.14% | % removal EMPA 111 ([4]; 5 gpg, 100 ppm, EMPA 111): 54% | % removal EMPA 114 ([4]; 5 gpg, 100 ppm, EMPA 114): 0% | % removal EMPA 116 ([4]; 5 gpg, 100 ppm, EMPA 116): 25% | % removal EMPA 101 ([4]; 17 gpg, 50 ppm, EMPA 101): 21% | % removal EMPA 104 ([4]; 17 gpg, 50 ppm, EMPA 104): 19% | % removal EMPA 106 ([4]; 17 gpg, 50 ppm, EMPA 106): 9% | % removal EMPA 111 ([4]; 17 gpg, 50 ppm, EMPA 111): 35% | % removal EMPA 114 ([4]; 17 gpg, 50 ppm, EMPA 114): 1% | % removal EMPA 116 ([4]; 17 gpg, 50 ppm, EMPA 116): 21% | % removal EMPA 101 ([4]; 17 gpg, 100 ppm, EMPA 101): 20% | % removal EMPA 104 ([4]; 17 gpg, 100 ppm, EMPA 104): 16% | % removal EMPA 106 ([4]; 17 gpg, 100 ppm, EMPA 106): 10% | % removal EMPA 111 ([4]; 17 gpg, 100 ppm, EMPA 111): 32% | % removal EMPA 114 ([4]; 17 gpg, 100 ppm, EMPA 114): 1% | % removal EMPA 116 ([4]; 17 gpg, 100 ppm, EMPA 116): 20% | Physical state at room temperature [5]: liquid
